Assay results reported in US20220023289A1, “Application Of Pyrroloquinoline Quinone In Preparation Of Medicament Used For Preventing And Treating Acute Altitude Sickness And Acute Altitude Hypoxia Injury” (priority 2018, published 2022).

Experiments:
[1] = test system: rats exposed to acute altitude hypoxia; experiment: Renal function in rats exposed to acute altitude hypoxia; format: in vivo, Wistar rat; conditions: male rats, hypoxia
Experimental: (§1) Select healthy Wistar rats weight 160-200 g, half female and half male. After feeding for 3 days, these Wistar rats are randomly divided into ten groups according to their body weight, each group has 16±2 rats. The groups are divided as follows: five groups of the hypoxic exposure drug test group, respectively, are given 0.91 mg/kg, 1.83 mg/kg, 3.66 mg/kg, 7.31 mg/kg, and 14.63 mg/kg drugs. […] After continuous intragastric administration for 7 days, the animals in the hypoxic exposure group are simultaneously put into the decompression and hypoxia compound experimental chamber, the hatch is closed, and the pressure is reduced at a speed of 10 m/s. After being raised to an altitude of 6000 m and maintained for 8 hours, the speed in 10 m/s drops is reduced to normal altitude, open the hatch, and then take out the animal, collect blood samples (after standing for 1 hour, the supernatant is centrifuged and stored at −20° C.), and liver tissue samples. Detection indicator includes body weight, serum blood glucose, ATP, lactic acid, endothelin, nitric oxide, SOD, CO, MDA related to oxidative stress, and total protein, albumin, triglycerides, total cholesterol, high-density lipoprotein cholesterol, low-density lipoprotein cholesterol, glutamic pyruvic transaminase, total bilirubin, gluamic oxalacetic transaminase, serum urea nitrogen, creatinine, uric acid, lactate dehydrogenase, creatine kinase, α-hydroxybutyrate dehydrogenase; liver ATP, hepatic glycogen. Except that the formal oxygen control animal group is not put into the decompression and hypoxia compound experimental chamber, other experimental conditions and detection indicators are the same.
Measure blood glucose, total protein, albumin, triglycerides, total cholesterol, high-density lipoprotein cholesterol, low-density lipoprotein cholesterol, glutamic-pyruvic transaminase, total bilirubin, glutamic oxalacetic transaminase, serum urea nitrogen, creatinine, uric acid, lactate dehydrogenase, creatine kinase, α-hydroxybutyrate dehydrogenase, blood homocysteine by using an automatic blood biochemical analyzer.

[2] = test system: rats with acute altitude hypoxia injury; experiment: Oxidative stress indexes of rats with acute altitude hypoxia injury; format: in vivo, Wistar rat
Text: Operate according to the instructions, and then measure the absorbance value of each tube, and afterwards calculate the content of malondialdehyde in the sample to be tested according to the formula. […] The latter oxidizes hydroxylamine to form nitrite. It appears purplish red under the action of chromogenic agent. Measure its absorbance by a visible light spectrophotometer. When the measured sample contains superoxide dismutase, it has specific inhibitory effect on superoxide anion free radicals, make formed nitrite reduced. […] The superoxide dismutase activity in the tested sample can be calculated by formula calculation. […] The latter can form a stable complex with phenanthrophins and measure its antioxidant capacity by colorimetry. Operate according to the kit instructions, measure the absorbance of each tube at a wavelength of 520 nm, and then calculate the total antioxidant capacity in the sample to be tested according to the formula.

[3] = test system: rats exposed to acute altitude hypoxia; experiment: Liver ATP and glycogen in rats exposed to acute altitude hypoxia; format: in vivo, Wistar rat
Experimental: Determination of adenosine triphosphate (ATP): Perform enzyme-linked immunosorbent assay by double-antibody one-step sandwich method. To the coated microwells pre-coated with rat adenosine triphosphate (ATP) capture antibody, add in sequence the specimens, standard, and HRP-labeled detection antibody, and then incubate and wash thoroughly. Use a substrate TMB for color development, TMB is converted into blue under the catalysis of peroxidase and converted into the final yellow color under the action of acid. The color intensity is positively correlated with the rat adenosine triphosphate (ATP) in the sample. […] Determination of liver glycogen (GC): Perform enzyme-linked immunosorbent assay by double-antibody one-step sandwich method. To the coated microwells pre-coated with rat liver glycogen (GC) capture antibody, add in sequence the specimens, standard, and HRP-labeled detection antibody, and then incubate and wash thoroughly. Use a substrate TMB for color development, TMB is converted into blue under the catalysis of peroxidase and converted into the final yellow color under the action of acid. The color intensity is positively correlated with the rat liver glycogen (GC) in the sample.

[4] = Rat body weight before the acute decompression hypoxia experiment (intragastric 7 days)
Experimental: as §1

[5] = female rats, hypoxia, 0.91 mg/kg
[6] = female rats, hypoxia, 1.83 mg/kg
[7] = female rats, hypoxia, 3.66 mg/kg
[8] = female rats, hypoxia, 7.31 mg/kg
[9] = female rats, hypoxia, 14.63 mg/kg
[10] = female rats, normoxia, 3.66 mg/kg
[11] = male rats, hypoxia, 14.63 mg/kg

O=C(O)c1cc(C(=O)O)c2c(n1)C(=O)C(=O)c1cc(C(=O)O)[nH]c1-2 [PQQ, pyrroloquinoline quinone]
Creatinine ([1]; 3.66 mg/kg): 21.90 ± 2.88 µmol/L
Serum urea nitrogen ([1]; 3.66 mg/kg): 6.37 ± 1.64 mmol/L
Uric acid ([1]; 3.66 mg/kg): 171.38 ± 14.92 µmol/L
Creatinine ([1]; 7.31 mg/kg): 22.40 ± 1.53 µmol/L
Serum urea nitrogen ([1]; 7.31 mg/kg): 5.91 ± 0.86 mmol/L
Uric acid ([1]; 7.31 mg/kg): 202.16 ± 17.13 µmol/L
Creatinine ([1]; 14.63 mg/kg): 22.49 ± 3.00 µmol/L
Serum urea nitrogen ([1]; 14.63 mg/kg): 6.23 ± 1.36 mmol/L
Uric acid ([1]; 14.63 mg/kg): 182.22 ± 15.80 µmol/L
Endo Dialdehyde [2, 5]: 15.07 ± 1.91 nmol/L
Superoxide dismutase [2, 5]: 66.11 ± 4.18 U/ml
Total antioxidants [2, 5]: 10.52 ± 1.08 U/ml
Endo Dialdehyde [2, 6]: 13.96 ± 1.33 nmol/L
Superoxide dismutase [2, 6]: 60.79 ± 2.56 U/ml
Total antioxidants [2, 6]: 10.06 ± 0.77 U/ml
Endo Dialdehyde [2, 7]: 13.73 ± 0.27 nmol/L
Superoxide dismutase [2, 7]: 56.82 ± 3.80 U/ml
Total antioxidants [2, 7]: 10.84 ± 0.47 U/ml
Endo Dialdehyde [2, 8]: 14.14 ± 2.68 nmol/L
Superoxide dismutase [2, 8]: 56.65 ± 2.97 U/ml
Total antioxidants [2, 8]: 10.37 ± 0.75 U/ml
Endo Dialdehyde [2, 9]: 14.81 ± 1.37 nmol/L
Superoxide dismutase [2, 9]: 56.16 ± 3.64 U/ml
Total antioxidants [2, 9]: 10.59 ± 1.65 U/ml
effect on malondialdehyde ([2]; female rats, normoxia): can slightly increase
effect on serum superoxide dismutase and total antioxidants ([2]; female rats, normoxia): no significant effects
Endo Dialdehyde [2, 10]: 14.39 ± 0.85 nmol/L
Superoxide dismutase [2, 10]: 52.21 ± 1.23 U/ml
Total antioxidants [2, 10]: 11.28 ± 0.83 U/ml
effect on serum superoxide dismutase activity ([2]; hypoxia exposed female rats): can increase
effect on serum total antioxidants and malondialdehyde ([2]; hypoxia exposed female rats): no significant effects
effect on serum superoxide dismutase activity ([2]; hypoxia exposed male rats): can increase
effect on serum total antioxidants and malondialdehyde ([2]; male rats): no significant effect
Malonaldehyde ([2]; male rats, hypoxia, 0.91 mg/kg): 2.79 ± 0.62 nmol/L
Superoxide dismutase ([2]; male rats, hypoxia, 0.91 mg/kg): 196.26 ± 4.15 U/ml
Total antioxidants ([2]; male rats, hypoxia, 0.91 mg/kg): 3.17 ± 1.40 U/ml
Malonaldehyde ([2]; male rats, hypoxia, 1.83 mg/kg): 2.89 ± 1.09 nmol/L
Superoxide dismutase ([2]; male rats, hypoxia, 1.83 mg/kg): 193.38 ± 4.53 U/ml
Total antioxidants ([2]; male rats, hypoxia, 1.83 mg/kg): 2.77 ± 1.10 U/ml
Malonaldehyde ([2]; male rats, hypoxia, 3.66 mg/kg): 3.9 ± 1.39 nmol/L
Superoxide dismutase ([2]; male rats, hypoxia, 3.66 mg/kg): 189.59 ± 5.46 U/ml
Total antioxidants ([2]; male rats, hypoxia, 3.66 mg/kg): 3.81 ± 0.97 U/ml
Malonaldehyde ([2]; male rats, hypoxia, 7.31 mg/kg): 3.15 ± 0.99 nmol/L
Superoxide dismutase ([2]; male rats, hypoxia, 7.31 mg/kg): 186.20 ± 6.32 U/ml
Total antioxidants ([2]; male rats, hypoxia, 7.31 mg/kg): 3.62 ± 1.94 U/ml
Malonaldehyde [2, 11]: 3.59 ± 1.15 nmol/L
Superoxide dismutase [2, 11]: 179.58 ± 6.32 U/ml
Total antioxidants [2, 11]: 1.49 ± 2.30 U/ml
effect on liver ATP and glycogen content ([3]; female rats, after hypoxia exposure and normoxia): no significant effects
liver Glycogen [3, 5]: 2.52 ± 0.36 ng/mL
liver ATP [3, 6]: 1.58 ± 0.27 µg/mL
liver Glycogen [3, 6]: 2.89 ± 0.57 ng/mL
liver ATP [3, 7]: 1.64 ± 0.37 µg/mL
liver Glycogen [3, 7]: 2.84 ± 0.67 ng/mL
liver Glycogen [3, 8]: 3.07 ± 0.19 ng/mL
liver Glycogen [3, 9]: 3.62 ± 0.38 ng/mL
liver ATP [3, 10]: 1.62 ± 0.13 µg/mL
liver Glycogen [3, 10]: 2.89 ± 0.28 ng/mL
effect on liver ATP and glycogen content ([3]; male rats): can increase
liver Glycogen ([3]; male rats, hypoxia, 0.91 mg/kg): 2.41 ± 0.41 ng/mL
liver Glycogen ([3]; male rats, hypoxia, 1.83 mg/kg): 2.23 ± 0.17 ng/mL
liver Glycogen ([3]; male rats, hypoxia, 3.66 mg/kg): 2.70 ± 0.84 ng/mL
liver Glycogen ([3]; male rats, hypoxia, 7.31 mg/kg): 2.86 ± 0.43 ng/mL
liver Glycogen [3, 11]: 2.55 ± 0.28 ng/mL
rat body weight Female 1 day ([4]; 0.91 mg/kg): 154.4 ± 7.2 g
rat body weight Female 7 days ([4]; 0.91 mg/kg): 169.6 ± 3.3 g
rat body weight Male 1 day ([4]; 0.91 mg/kg): 173.4 ± 7.4 g
rat body weight Male 7 days ([4]; 0.91 mg/kg): 196.4 ± 5.7 g
rat body weight Female 1 day ([4]; 1.83 mg/kg): 153.6 ± 6.9 g
rat body weight Female 7 days ([4]; 1.83 mg/kg): 167.4 ± 6.7 g
rat body weight Male 1 day ([4]; 1.83 mg/kg): 173.6 ± 5.9 g
rat body weight Male 7 days ([4]; 1.83 mg/kg): 206.8 ± 6.2 g
rat body weight Female 1 day ([4]; 3.66 mg/kg): 154.1 ± 8.6 g
rat body weight Female 7 days ([4]; 3.66 mg/kg): 172.1 ± 2.2 g
rat body weight Male 1 day ([4]; 3.66 mg/kg): 170.8 ± 10.8 g
rat body weight Male 7 days ([4]; 3.66 mg/kg): 198.3 ± 9.0 g
rat body weight Female 1 day ([4]; 7.31 mg/kg): 154.3 ± 7.7 g
rat body weight Female 7 days ([4]; 7.31 mg/kg): 171.1 ± 8.6 g
rat body weight Male 1 day ([4]; 7.31 mg/kg): 169.9 ± 9.9 g
rat body weight Male 7 days ([4]; 7.31 mg/kg): 198.6 ± 11.6 g
rat body weight Female 1 day ([4]; 14.63 mg/kg): 152.7 ± 7.2 g
rat body weight Female 7 days ([4]; 14.63 mg/kg): 166.0 ± 4.1 g
rat body weight Male 1 day ([4]; 14.63 mg/kg): 171.6 ± 10 g
rat body weight Male 7 days ([4]; 14.63 mg/kg): 199.6 ± 12.5 g
effect on body weight ([4]; female rats, 7 days): did not affect
effect on weight ([4]; male rats, 7 days): did not affect
